row,logP,Compound
1,2.05,CC(C)OC(=O)C1(S(=O)(=O)c2ccc([N+](=O)[O-])cc2)CC1
2,2.64,CC(C)OC(=O)C1(S(=O)(=O)c2ccc(Cl)cc2)CC1
3,2.84,CC(C)OC(=O)C1(S(=O)(=O)c2ccc([N+](=O)[O-])cc2)CCCCC1
4,2.45,COC(=O)C1(S(=O)(=O)c2ccc(Br)cc2)CCC1
5,2.23,CCOC(=O)C1(S(=O)(=O)c2ccc(C)cc2)CC1
6,1.77,COC(=O)C1(S(=O)(=O)c2ccc(C)cc2)CC1
7,2.36,CC(C)OC(=O)C1(S(=O)(=O)c2ccc([N+](=O)[O-])cc2)CCC1
8,2.52,Cc1ccc(S(=O)(=O)C2(C(=O)OC(C)C)CC2)cc1
9,3.16,CC(C)OC(=O)C1(S(=O)(=O)c2ccc(Cl)cc2)CCCC1
10,2.78,Cc1ccc(S(=O)(=O)C2(C(=O)OC(C)C)CCC2)cc1
11,2.31,CCOC(=O)C1(S(=O)(=O)c2ccc(C)cc2)CCC1

# Second part, the compound before the results:
row,Compound,logP
1,CC(C)(C)OC(=O)C1(S(=O)(=O)c2ccc(Cl)cc2)CC1,2.68
2,COC(=O)C1(S(=O)(=O)c2ccccc2)CC1,1.43
3,COC(=O)C1(S(=O)(=O)c2ccc(Br)cc2)CCCCC1,2.94
4,COC(=O)C1(S(=O)(=O)c2ccc(Cl)cc2)CCC1,2.28
5,COC(=O)C1(S(=O)(=O)c2ccc(Cl)cc2)CC1,2.03
6,COC(=O)C1(S(=O)(=O)c2ccccc2)CCCC1,1.98
7,COC(=O)C1(S(=O)(=O)c2ccc([N+](=O)[O-])cc2)CC1,1.33
8,COC(=O)C1(S(=O)(=O)c2ccccc2)CCCCC1,2.3
9,COC(=O)C1(S(=O)(=O)c2ccc(Br)cc2)CC1,2.32
10,CC(C)OC(=O)C1(S(=O)(=O)c2ccc([N+](=O)[O-])cc2)CCCCCC1,3.41
11,COC(=O)C1(S(=O)(=O)c2ccccc2)CCC1,1.63
12,COC(=O)C1(S(=O)(=O)c2ccc(Br)cc2)CCCC1,2.73

# Reference: the OPERA property sets (Mansouri et al. 2018)
